One data set has as its target T1, topoisomerase II (Homo sapiens, UniProt P11388).
T1 construct: purchased TopoGEN, Inc., Port Orange, Fla
The data set can be described thus: Topoisomerase II drug screening kit (relaxation of plasmid DNA). Details: key to Topoisomerase II Inhibition: — none; + low; ++ moderate; +++ strong. The note with it: for Topoisomerase II Inhibition: 100 μM drug compound, topoisomerase II (4U), 500 ng plasmid DNA; for inhibition of topoisomerase II catalytic activity (in words): 100 μM makaluvamine derivative. The class given is biochemical. The text has this:
In order to determine the effect of the makaluvamine derivatives of the present disclosure, the synthesized makaluvamine derivatives were screened for their ability to inhibit topoisomerase II activity in vitro. Topoisomerase II functions by generating a double-stranded DNA break followed by resealing of the break. Topoisomerase II inhibitors interfere with the breakage-rejoining reaction thereby trapping the enzyme in a cleavage complex. In order to determine if the disclosed makaluvamine derivatives inhibited topoisomerase II activity, nine of the derivatives were tested for topoisomerase II inhibitory activity using a topoisomerase-II drug screening kit (TopoGEN, Inc., Port Orange, Fla.) according to the manufacturer's instructions. The screening kit uses a supercoiled plasmid DNA substrate (pRYG) which contains one topoisomerase II cleavage/recognition site. […] Relaxed DNA was separated using non-ethidium bromide (EtBr) agarose gels, then stained with EtBr and quantified using Kodak Gel Logic Imaging System and Molecular Imaging software (Eastman Kodak Co., Rochester, N.Y.). Inhibition of relaxation of plasmid DNA or catalytic activity was reported as; − none, + low, ++ moderate, or +++ strong.

For another data set, the system named is cleaved PARP. The data set can be described thus: Protein expression, Western blot in MCF-7 cells. The data set is classed as cell-based, human. The conditions noted are these: 24 h (FIG. 4B). How it is done: (§1) In FIG. 4A, MCF-7 cells were exposed to 1 μM concentration of the indicated compounds for 6 hours. Western blots were probed with antibodies specific for the proteins indicated. Numbers below each lane show densitometry readings for each lane as compared to control. In FIG. 4B, MCF-7 cells were exposed to the indicated concentration of compound 28 and incubated for 24 hours. Western blots were probed with antibodies specific for the proteins indicated.
(§2) To determine the disclosed compounds effect on protein expression in human breast cancer cells, cultured MCF-7 cells were exposed to various concentrations of the test compounds for 6 h (FIG. 4A) or 24 h (FIG. 4B). Cell lysates were fractionated with identical amounts of protein by SDS-PAGE and transferred to Bio-Rad trans-Blot nitrocellulose membranes (Bio-Rad Laboratories, Hercules, Calif.). The nitrocellulose membrane was incubated in blocking buffer (Tris-buffered saline containing 0.1% Tween 20 and 5% nonfat milk) for 1 h at room temperature, then with the appropriate primary antibody overnight at 4° C. or 2 h at room temperature with gentle shaking. Finally, the membrane was washed three times with the washing buffer (Tris-buffered saline containing 0.1% Tween 20) for 15 min, incubated with goat anti mouse/rabbit IgG-horseradish peroxidase-conjugated antibody (Bio-Rad) for 1 h at room temperature, and washed again (in triplicate). The protein of interest was detected by enhanced chemiluminescence reagents from PerkinElmer LAS, Inc (Boston, Mass.).
Background: A western blot detects proteins with antibodies after separation by electrophoresis.

For a further data set, the system named is cdc25c. The data set can be described thus: Protein expression, Western blot in MCF-7 cells. The data set is classed as cell-based, human. The conditions noted are these: 24 h (FIG. 4B). The method, then: as §1, §2
The test system of a further data set is E2F1. The data set can be described thus: Protein expression, Western blot in MCF-7 cells. The class given is cell-based, human. The note with it: 24 h (FIG. 4B). The method, then: as §1, §2
For the next data set, the system named is cdc2. The data set can be described thus: Protein expression, Western blot in MCF-7 cells. The class given is cell-based, human. The conditions noted are these: 24 h (FIG. 4B). The method, then: as §1, §2
A further data set concerns HCT-116 p53 −/−. The data set is described as follows: Cell cycle progression (propidium iodide, flow cytometry). The conditions noted are these: 48 hr; for G1 / G2/M / S: HCT-116 p53 −/−. The data set is classed as cell-based, human. The method, then: (§3) To determination of the effects of the disclosed compounds on the cell cycle, 2-3×10^5 cells were exposed to the test compounds (0-5 μM) and incubated for 48 hr prior to analysis (Table 6). Cells were trypsinized, washed with PBS and fixed in 1.5 mL 95% ethanol at 4° C. overnight, followed by incubation with RNAse and staining with propidium iodide (Sigma). The DNA content was determined by flow cytometry.
In general terms: In flow cytometry, cells or beads pass a laser one at a time.

The next data set has as its system H1299. The description is as above. The data set is classed as cell-based, human. The note with it: 48 hr; for G1 / G2/M / S: H1299; for cell cycle arrest: lung cancer H1299, dose-dependent. How it is done: as §3
For the next data set, the system named is A549. The description is as above. The note with it: 48 hr; for G1 / G2/M / S: A549; for cell cycle arrest: lung cancer A549, dose-dependent. The class given is cell-based, human. The method, then:
as §3

Data set [1] relates to different cancer cell lines. The data set is described as follows: Induction of apoptosis (annexin V-FITC). The data set is classed as cell-based, human. The note with it: annexin V-FITC/PI; 0.1-25 μM, 48 hr; effect in the 1-10 μM range. The method, then: Cells in early and late stages of apoptosis were detected with an annexin V-FITC apoptosis detection kit from BioVision (Mountain View, Calif.). In brief, cells were exposed to the test compounds (0, 0.1, 1, 10, 25 μM) and incubated for 48 hr prior to analysis. Media and cells were collected and washed with serum-free media. Cells were then re-suspended in 500 μL of Annexin V binding buffer followed by addition of 5 μL Annexin VFITC and 5 μL of propidium iodide (PI). The samples were incubated in the dark for 5 min at room temperature prior to analysis. […] Cells that were positive for Annexin V-FITC alone (early apoptosis) and Annexin V-FITC and PI (late apoptosis) were counted.

The test system of data set [2] is female, athymic nude mice. The conditions noted are these: 8, 20 or 40 mg/kg intra-peritoneally, 1 time per week for 3 weeks. The method, then:
To evaluate the potential toxicity of the makaluvamine compounds disclosed, compound 4c was identified for testing in a mouse model. […] Four groups of 5 female, athymic nude mice (Federick Cancer Research, Rockville, Md.) were injected intra-peritoneally, at doses of 8, 20 or 40 mg/kg of compounds 4c (treatment group) or vehicle only (control group). […] Compound 4c was injected at its respective dose in a 200 μl volume of saline:DMSO (100 μl:100 μl). The vehicle only group was injected with 200 μl saline:DMSO. Injections were given 1 time per week for 3 weeks. […] Mice in each groups were evaluated for survival and weight gain/loss during the treatment period.

The structures appear in SMILES notation.

T1 sequence (P11388 whole entry): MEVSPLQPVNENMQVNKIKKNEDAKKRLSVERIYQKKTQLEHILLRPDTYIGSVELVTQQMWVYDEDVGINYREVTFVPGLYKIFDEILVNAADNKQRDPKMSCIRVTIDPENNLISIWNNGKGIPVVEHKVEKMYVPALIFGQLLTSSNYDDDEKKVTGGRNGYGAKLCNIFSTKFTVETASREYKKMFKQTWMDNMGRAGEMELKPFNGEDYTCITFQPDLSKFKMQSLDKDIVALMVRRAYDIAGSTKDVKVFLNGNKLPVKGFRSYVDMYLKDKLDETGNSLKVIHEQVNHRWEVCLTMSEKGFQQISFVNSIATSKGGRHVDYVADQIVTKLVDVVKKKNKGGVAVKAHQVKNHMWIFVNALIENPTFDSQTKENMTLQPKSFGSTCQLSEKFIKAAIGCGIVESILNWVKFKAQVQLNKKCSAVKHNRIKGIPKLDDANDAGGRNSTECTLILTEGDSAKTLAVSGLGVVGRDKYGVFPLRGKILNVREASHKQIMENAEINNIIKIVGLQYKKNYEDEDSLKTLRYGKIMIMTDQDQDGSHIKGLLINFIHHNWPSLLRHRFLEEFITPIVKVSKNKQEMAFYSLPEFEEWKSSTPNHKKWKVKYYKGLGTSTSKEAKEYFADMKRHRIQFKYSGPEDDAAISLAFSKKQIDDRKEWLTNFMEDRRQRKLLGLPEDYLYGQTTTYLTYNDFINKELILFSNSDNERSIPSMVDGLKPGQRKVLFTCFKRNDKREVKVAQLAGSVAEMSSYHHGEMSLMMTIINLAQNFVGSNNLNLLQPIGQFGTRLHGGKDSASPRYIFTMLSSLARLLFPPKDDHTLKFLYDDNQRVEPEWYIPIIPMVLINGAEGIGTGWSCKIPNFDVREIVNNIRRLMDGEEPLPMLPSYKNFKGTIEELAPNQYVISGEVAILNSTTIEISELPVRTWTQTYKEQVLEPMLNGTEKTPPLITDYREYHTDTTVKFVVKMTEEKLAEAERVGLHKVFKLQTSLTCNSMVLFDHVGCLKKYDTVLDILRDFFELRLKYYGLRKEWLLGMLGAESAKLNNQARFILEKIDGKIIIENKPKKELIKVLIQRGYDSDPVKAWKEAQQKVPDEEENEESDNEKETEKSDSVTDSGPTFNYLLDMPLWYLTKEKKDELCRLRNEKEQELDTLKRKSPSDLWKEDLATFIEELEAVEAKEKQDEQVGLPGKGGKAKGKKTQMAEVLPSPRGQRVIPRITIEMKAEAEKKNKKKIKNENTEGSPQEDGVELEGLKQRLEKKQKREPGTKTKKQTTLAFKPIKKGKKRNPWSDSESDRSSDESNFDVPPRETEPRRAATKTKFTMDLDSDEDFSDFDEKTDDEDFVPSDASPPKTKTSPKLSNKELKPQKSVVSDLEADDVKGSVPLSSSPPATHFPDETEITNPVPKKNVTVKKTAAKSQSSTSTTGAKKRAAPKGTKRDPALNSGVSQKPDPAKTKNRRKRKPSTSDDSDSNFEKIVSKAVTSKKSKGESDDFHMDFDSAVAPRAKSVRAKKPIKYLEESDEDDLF

For `O=C1C(NCCc2ccccc2)=CC2=NCCc3c[nH]c1c32` [Compound 4d], at topoisomerase II, the “Topoisomerase II Inhibition” value is “+”; the “inhibition of topoisomerase II catalytic activity (in words)” value is “comparable to etoposide and m-AMSA”.

As to `CNC1=CC2=NCCc3c[nH]c(c32)C1=O` [Compound 4a], the “Topoisomerase II Inhibition” value on topoisomerase II is “—”.

With `O=C(O)C(F)(F)F.O=C1C(NCc2ccc(F)cc2)=CC2=NCCc3c[nH]c1c32` [Compound 28], in the data set with cleaved PARP, the “expression of cleaved PARP” value is on record as “increased expression”. The “expression level of cdc25c” value in the data set with cdc25c is recorded as “decreased”. In the data set on E2F1, the “expression level of E2F1” value was “decreased”. Further, the “expression level of cdc2” value in the data set on cdc2 was “decreased”. Moreover, the G1 is on record as 28.18 with HCT-116 p53 −/− (0.5 μM); 25.59 in the data set on HCT-116 p53 −/− (1 μM); 54.23 in the data set with H1299 (0.1 μM); 46.88 in the data set on H1299 (1 μM); 31.52 with H1299 (2 μM); 59.91 in the data set on A549 (0.1 μM). Also, the G1 in the data set with A549 (1 μM) came out at 57.88; in the data set with A549 (5 μM), 46.78. Moreover, the G2/M with HCT-116 p53 −/− (0.5 μM) is 49.02; in the data set on HCT-116 p53 −/− (1 μM), 45.20; in the data set on H1299 (0.1 μM), 25.17; in the data set on H1299 (1 μM), 31.82; in the data set on H1299 (2 μM), 36.36; in the data set with A549 (0.1 μM) it was 20.22. Moreover, the G2/M is 20.14 in the data set with A549 (1 μM) and 25.07 in the data set with A549 (5 μM). The S amounted to 22.80 in the data set on HCT-116 p53 −/− (0.5 μM); 29.21 in the data set on HCT-116 p53 −/− (1 μM); 20.60 with H1299 (0.1 μM); 21.31 in the data set on H1299 (1 μM); 32.11 in the data set on H1299 (2 μM); 19.87 in the data set on A549 (0.1 μM). Further, the S with A549 (1 μM) amounted to 21.98; in the data set on A549 (5 μM) it was 28.14. In addition, the cell cycle arrest entry in the data set on HCT-116 p53 −/− (colon cancer HCT116 p53−/−, dose-dependent) was “cell cycle arrest in the S and G2/M phase”; with H1299, “cell cycle arrest in the S phase”; with A549, “cell cycle arrest in the S phase”. Besides, the induction of apoptosis result in [1] is “significant induction of apoptosis”.

As for `O=C1C(NCc2ccccc2)=CC2=NCCc3c[nH]c1c32` [Compound 4c], the G1 with H1299 (0.1 μM) amounted to 55.27; in the data set with H1299 (1 μM), 51.18; in the data set on H1299 (2 μM), 30.46; in the data set with A549 (0.1 μM), 60.23; in the data set with A549 (1 μM) it was 58.62; with A549 (5 μM) it was 47.18. Besides, the G2/M is 26.89 in the data set with H1299 (0.1 μM); 29.35 in the data set with H1299 (1 μM); 49.58 in the data set on H1299 (2 μM); 19.41 with A549 (0.1 μM); 19.85 with A549 (1 μM); 30.35 in the data set with A549 (5 μM). Also, the S in the data set on H1299 (0.1 μM) stood at 17.84; in the data set with H1299 (1 μM), 19.47; in the data set on H1299 (2 μM), 19.96; in the data set on A549 (0.1 μM) it was 20.37; in the data set with A549 (1 μM) it was 21.53; in the data set with A549 (5 μM), 22.48. Further, the cell cycle arrest entry in the data set on H1299 and with A549 was “cell cycle arrest in the G2/M phase” in each case. The “Topoisomerase II Inhibition” value on topoisomerase II was “++”. Further, the “inhibition of topoisomerase II catalytic activity (in words)” value at topoisomerase II is “comparable to etoposide and m-AMSA”. Moreover, in [1], the induction of apoptosis entry is reported as “significant induction of apoptosis”. Moreover, the “weight changes between treatment groups” value in data set [2] is on record as “No significant weight changes”. In addition, the “weight gain/loss during the treatment period” value in [2] is “all mice gained weight”. For the same compound, the survival in [2] (observed 21 days) was 100%.

For `O=C(O)C(F)(F)F.O=C1C(NCCc2ccc3c(c2)OCO3)=CC2=NCCc3c[nH]c1c32` [Compound 6], the G1 with H1299 (0.1 μM) is on record as 53.99; in the data set on H1299 (1 μM) it was 57.20; in the data set with H1299 (5 μM) it was 35.29; with A549 (0.1 μM) it was 58.66; in the data set with A549 (1 μM), 58.59; in the data set on A549 (5 μM) it was 50.88. Also, the G2/M amounted to 30.73 in the data set with H1299 (0.1 μM); 27.57 with H1299 (1 μM); 41.28 with H1299 (5 μM); 20.85 in the data set with A549 (0.1 μM); 20.37 in the data set with A549 (1 μM); 23.36 with A549 (5 μM). For the same compound, the S with H1299 (0.1 μM) stood at 15.28; with H1299 (1 μM), 15.22; in the data set with H1299 (5 μM), 23.43; in the data set on A549 (0.1 μM) it was 20.50; with A549 (1 μM) it was 21.04; with A549 (5 μM), 25.76. Further, the cell cycle arrest result in the data set on H1299 and in the data set on A549 was “cell cycle arrest in the G2/M phase” in each case.

Source of the values: patent US20100144779A1, “Marine Alkalod Makaluvamines and Derivatives Thereof” (THE UAB RESEARCH FOUNDATION, priority 2007, published 2010).
